# Measured values reported in patent US7998979B2, “Antibacterial quinoline derivatives” (Janssen Pharmaceutical N.V., priority 2006, dated 2011).
# What was measured:
# [1] = system: Streptococcus pneumoniae (ATCC6305); test: IC90 determination, microtitre plate assay, SPN 6305; format: cell-based; settings: 90% inhibitory concentration for bacterial growth, 37° C.; for IC90 (μg/ml) SPN 6305: 24 hours; for IC90: Streptococcus pneumoniae, ATCC6305, 24 h, read-out: IC90 (μg/ml) SPN 6305
# Experimental: (§1) D.3. In-Vitro Method for Testing Compounds for Anti-Bacterial Activity Against Various Non-Mycobacterial Strains
# (§2) Preparation of Bacterial Suspensions for Susceptibility Testing:
# (§3) The bacteria used in this study were grown overnight in flasks containing 100 ml Mueller-Hinton Broth (Becton Dickinson—cat. no. 275730) in sterile de-ionized water, with shaking, at 37° C. Stocks (0.5 ml/tube) were stored at −70° C. until use. Bacteria titrations were performed in microtiter plates to detect the TCID50, in which the TCID50 represents the dilution that gives rise to bacterial growth in 50% of inoculated cultures.
# (§4) In general, an inoculum level of approximately 100 TCID50 was used for susceptibility testing.
# (§5) Anti Bacterial Susceptibility Testing: IC90 Determination
# (§6) Flat-bottom, sterile 96-well plastic microtiter plates were filled with 180 μl of sterile deionized water, supplemented with 0.25% BSA. Subsequently, stock solutions (7.8×final test concentration) of compounds were added in 45 μl volumes in column 2 Serial five-fold dilutions (45 μl in 180 μl) were made directly in the microtiter plates from column 2 to reach column 11. Untreated control samples with (column 1) and without (column 12) inoculum were included in each microtiter plate. Depending on the bacteria type, approximately 10 to 60 CFU per well of bacteria inoculum (100 TCID50), in a volume of 100 μl in 2.8×Mueller-Hinton broth medium, was added to the rows A to H, except column 12. The same volume of broth medium without inoculum was added to column 12 in row A to H. The cultures were incubated at 37° C. for 24 hours under a normal atmosphere (incubator with open air valve and continuous ventilation). At the end of incubation, one day after inoculation, the bacterial growth was quantitated fluorometrically. Therefore resazurin (0.6 mg/ml) was added in a volume of 20 μl to all wells 3 hours after inoculation, and the plates were re-incubated overnight. A change in colour from blue to pink indicated the growth of bacteria. The fluorescence was read in a computer-controlled fluorometer (Cytofluor Biosearch) at an excitation wavelength of 530 nm and an emission wavelength of 590 nm. The % growth inhibition achieved by the compounds was calculated according to standard methods.
# [2] = system: Staphylococcus aureus (ATCC29213); test: IC90 determination, microtitre plate assay, STA 29213; format: cell-based; settings: 90% inhibitory concentration for bacterial growth, 37° C.; for IC90 (μg/ml) STA B29213: 24 hours; for IC90: Staphylococcus aureus, ATCC29213, 24 h, read-out: IC90 (μg/ml) STA B29213
# Experimental: as §1, §2, §3, §4, §5, §6
# M. Smegmatis (ATCC607) = test: In-vitro anti-bacterial activity against strain M. Smegmatis ATCC607; format: cell-based; settings: 90% inhibitory concentration for bacterial growth, 37° C.; for IC90 (μg/ml) MSM 607: 48 hours; for IC90: Mycolicibacterium smegmatis, ATCC607, 48 h, read-out: IC90 (μg/ml) MSM 607
# Experimental: D.2. In-Vitro Method for Testing Compounds for Anti-Bacterial Activity Against Strain M. Smegmatis ATCC607
# Flat-bottom, sterile 96-well plastic microtiter plates were filled with 180 μl of sterile deionized water, supplemented with 0.25% BSA. Subsequently, stock solutions (7.8×final test concentration) of compounds were added in 45 μl volumes to a series of duplicate wells in column 2 so as to allow evaluation of their effects on bacterial growth. Serial five-fold dilutions (45 μl in 180 μl) were made directly in the microtiter plates from column 2 to 11 using a customised robot system (Zymark Corp., Hopkinton, Mass.). Pipette tips were changed after every 3 dilutions to minimize pipetting errors with high hydrophobic compounds. Untreated control samples with (column 1) and without (column 12) inoculum were included in each microtiter plate. Approximately 250 CFU per well of bacteria inoculum, in a volume of 100 μl in 2.8×Mueller-Hinton broth medium, was added to the rows A to H, except column 12. The same volume of broth medium without inoculum was added to column 12 in row A to H. The cultures were incubated at 37° C. for 48 hours in a humidified 5% CO2 atmosphere (incubator with open air valve and continuous ventilation). At the end of incubation, two days after inoculation, the bacterial growth was quantitated fluorometrically. Therefore Alamar Blue (10×) was added to all wells in a volume of 20 μl and plates were incubated for another 2 hours at […]
# The fluorescence was read in a computer-controlled fluorometer (Cytofluor, Biosearch) at an excitation wavelength of 530 nm and an emission wavelength of 590 nm (gain 30).
# [3] = system: methicilline resistant Staphylococcus aureus (MRSA) (a clinical isolate from the University of Antwerp); test: IC90 determination, microtitre plate assay, STA RMETH; format: cell-based; settings: 90% inhibitory concentration for bacterial growth, 37° C.; for IC90: Staphylococcus aureus, MRSA, 24 h, read-out: IC90 (μg/ml) STA RMETHIC
# Experimental: as §1, §2, §3, §4, §5
# as §6, with “Therefore resazurin (0.6 mg/ml) was added in a volume of 20 μl to all wells 3 hours after inoculation, and the plates were re-incubated overnight. A change in colour from blue to pink indicated the growth of bacteria.” left out
# [4] = system: Enterococcus faecalis (ATCC29212); test: IC90 determination, microtitre plate assay, EFA 29212; format: cell-based; settings: 90% inhibitory concentration for bacterial growth, 24 hours, 37° C., read-out: IC90 (μg/ml) EFA 29212
# Experimental: as §1, §2, §3, §4, §5
# (§7) Flat-bottom, sterile 96-well plastic microtiter plates were filled with 180 μl of sterile deionized water, supplemented with 0.25% BSA. […] At the end of incubation, one day after inoculation, the bacterial growth was quantitated fluorometrically. […] The fluorescence was read in a computer-controlled fluorometer (Cytofluor Biosearch) at an excitation wavelength of 530 nm and an emission wavelength of 590 nm. The % growth inhibition achieved by the compounds was calculated according to standard methods.
# [5] = system: Streptococcus pyogens (ATCC8668); test: IC90 determination, microtitre plate assay, SPY 8668; format: cell-based; settings: 90% inhibitory concentration for bacterial growth, 24 hours, 37° C., read-out: IC90 (μg/ml) SPY 8668
# Experimental: as §1, §2, §3, §4, §5, §7
# [6] = system: Pseudomonas aeruginosa (ATCC27853); test: IC90 determination, microtitre plate assay, PAE 27853; format: cell-based; settings: 90% inhibitory concentration for bacterial growth, 24 hours, 37° C., read-out: IC90 (μg/ml) PAE 27853
# Experimental: as §1, §2, §3, §4, §5, §7
# [7] = system: Escherichia coli (ATCC35218); test: IC90 determination, microtitre plate assay, ECO 35218; format: cell-based; settings: 90% inhibitory concentration for bacterial growth, 24 hours, 37° C., read-out: IC90 (μg/ml) ECO 35218
# Experimental: as §1, §2, §3, §4, §5, §7
SMILES,IC90 (μg/ml) SPN 6305 [1] [µg/mL],IC90 (μg/ml) STA B29213 [2] [µg/mL],IC90 (μg/ml) MSM 607 (M. Smegmatis (ATCC607)) [µg/mL],IC90 (M. Smegmatis (ATCC607)) [µg/mL],IC90 [2] [µg/mL],melting point [°C],further results
COc1nc2ccc(Br)cc2cc1C(c1ccccc1)C(O)(CN(CCN(C)C)Cc1ccccc1)c1ccccc1 (stereo not shown) [Compound 15],62.46,62.46,62.46,–,–,–,–
"CCN(CC)CCCSCC(O)(c1ccccc1)C(c1ccccc1)c1cc2cc(Br)ccc2nc1OC (single isomer, unassigned) [Compound 8]",–,1.88,–,1.88,–,–,IC90 [1]: 2.36 µg/mL
"COc1nc2ccc(Br)cc2cc1C(c1ccccc1)C(O)(CSCCN(C)C)c1ccccc1 (single isomer, unassigned) [Compound 2]",8.74,21.96,2.46,–,–,–,–
"COc1nc2ccc(Br)cc2cc1C(c1ccccc1)C(O)(CN(C)CCN(C)C)c1ccccc1 (single isomer, unassigned) [Compound 13]",–,–,–,8.69,43.6,128,–
"COc1nc2ccc(Br)cc2cc1C(c1ccccc1)C(O)(CSCCCN1CCN(C)CC1)c1ccccc1 (single isomer, unassigned) [Compound 12]",–,–,–,2.2,4.39,–,IC90 [1]: 2.2 µg/mL; IC90 [3]: 13.9 µg/mL
"COc1nc2ccc(Br)cc2cc1C(c1ccccc1)C(O)(CSCCCN1CCCCC1)c1ccccc1 (single isomer, unassigned) [Compound 9]",60.56,60.56,48.11,–,–,158,–
"COc1nc2ccc(Br)cc2cc1C(c1ccccc1)C(O)(CSCCCN1CCCCC1)c1ccccc1 (single isomer, unassigned) [Compound 10]",2.15,4.81,1.92,–,–,–,–
"COc1nc2ccc(Br)cc2cc1C(c1ccccc1)C(O)(CSCCCN(C)C)c1ccccc1 (single isomer, unassigned) [Compound 3]",2.01,6.35,1.79,–,–,–,IC90 [4]: 11.3 µg/mL; IC90 [5]: 7.99 µg/mL; IC90 [6]: 11.3 µg/mL; IC90 [3]: 11.3 µg/mL; IC90 [7]: 14.2 µg/mL
"CCN(CC)CCCSCC(O)(c1ccccc1)C(c1ccccc1)c1cc2cc(Br)ccc2nc1OC (single isomer, unassigned) [Compound 7]",2.65,9.41,1.88,–,–,104,–
"COc1nc2ccc(Br)cc2cc1C(c1ccccc1)C(O)(CSCCCN(C)C)c1ccccc1 (single isomer, unassigned) [Compound 4]",10.06,–,–,2.01,7.99,136,–
"CCN(CC)CCSCC(O)(c1ccccc1)C(c1ccccc1)c1cc2cc(Br)ccc2nc1OC (single isomer, unassigned) [Compound 6]",23.07,51.66,10.31,–,–,148,–
"COc1nc2ccc(Br)cc2cc1C(c1ccccc1)C(O)(CN(C)CCN(C)C)c1ccccc1 (single isomer, unassigned) [Compound 14]",–,54.85,8.69,–,–,–,–
"COc1nc2ccc(Br)cc2cc1C(c1ccccc1)C(O)(CSCCN(C)C)c1ccccc1 (single isomer, unassigned) [Compound 1]",–,8.74,6.94,–,–,175,IC90 [1]: 4.92 µg/mL; IC90 [4]: 19.6 µg/mL; IC90 [5]: 49.2 µg/mL; IC90 [6]: 22 µg/mL; IC90 [7]: 55.2 µg/mL
COc1nc2ccc(Br)cc2cc1C(c1ccccc1)C(O)(CN(CCN(C)C)Cc1ccccc1)c1ccccc1 (stereo not shown) [Compound 16],–,–,–,55.7,62.5,–,IC90 [1]: 62.5 µg/mL
"CCN(CC)CCSCC(O)(c1ccccc1)C(c1ccccc1)c1cc2cc(Br)ccc2nc1OC (single isomer, unassigned) [Compound 5]",2.31,–,2.06,–,58,–,–
"COc1nc2ccc(Br)cc2cc1C(c1ccccc1)C(O)(CSCCCN1CCN(C)CC1)c1ccccc1 (single isomer, unassigned) [Compound 11]",1.96,4.93,1.96,–,–,136,IC90 (μg/ml) STA RMETHIC ([3]; 24 hours): 12.38 µg/mL
